Assay results from US8841312B2, “Fused pyridine, pyrimidine and triazine compounds as cell cycle inhibitors” (Amgen Inc., priority 2007, dated 2014).
pIC50: −log10 of the molar value.

Target: Cdk4/CyclinD1 (Homo sapiens (Human), UniProt P11802)
Assay: Cdk4 kinase inhibition assay with recombinant Cdk4/CyclinD1, Rb substrate, [33P]-ATP filter plate
Format: biochemical
Details: 25 μM ATP, read-out: Cdk 4 IC50
Description: The Cdk4 and Cdk6 inhibitory activity of the compounds is measured with a kinase inhibition assay using recombinant Cdk4/CyclinD1 or Cdk6/CyclinD3 protein complexes. The protein substrate used in the assay is the retinoblastoma protein (Rb). The kinase reactions are carried out in a 96-well filter plate (MSDV N6B50, Millipore). […] The mixture is incubated at room temperature for 1 hour and the proteins precipitated with an equal volume of 20% TCA. The plates are washed with 10% TCA according to the manufacturer's instruction and dried at room temperature. The amount of the phosphorylated Rb is determined with a TopCount (PerkinElmer). The IC50 of a compound is determined by nonlinear regression curve fitting using software program Prism 5 (GraphPad Software).

Sequence of Cdk4/CyclinD1 (P11802 whole entry): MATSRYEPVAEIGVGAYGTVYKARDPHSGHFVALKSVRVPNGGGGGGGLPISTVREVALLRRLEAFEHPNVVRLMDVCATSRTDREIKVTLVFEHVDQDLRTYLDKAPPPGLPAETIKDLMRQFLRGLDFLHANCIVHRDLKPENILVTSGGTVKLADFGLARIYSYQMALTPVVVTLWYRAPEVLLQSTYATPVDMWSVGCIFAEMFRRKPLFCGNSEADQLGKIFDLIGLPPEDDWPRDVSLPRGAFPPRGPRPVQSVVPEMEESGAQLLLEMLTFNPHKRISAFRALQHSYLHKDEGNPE
Sequence of Cdk4/CyclinD1 (P24385 whole entry partner): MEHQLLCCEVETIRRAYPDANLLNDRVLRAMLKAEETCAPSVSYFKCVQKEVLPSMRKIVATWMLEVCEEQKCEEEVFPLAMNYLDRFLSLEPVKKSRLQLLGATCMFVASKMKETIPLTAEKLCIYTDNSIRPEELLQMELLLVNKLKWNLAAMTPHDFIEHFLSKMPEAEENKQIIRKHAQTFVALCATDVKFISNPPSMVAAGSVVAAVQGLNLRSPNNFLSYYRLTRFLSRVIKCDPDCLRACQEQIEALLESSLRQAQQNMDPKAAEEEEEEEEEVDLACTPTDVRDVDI

| Compound | pIC50 |
| --- | --- |
| CN(C)C1CCN(c2ccc(Nc3ncc4c5ccncc5n(C5CCCC5)c4n3)nc2)CC1 [Example 12] | 8.02 |
| c1ncc2c(n1)c1cnc(Nc3ccc(N4CCNCC4)cn3)nc1n2C1CCCC1 [Example 59, 5-Cyclopentyl-N-(5-(1-piperazinyl)-2-pyridinyl)-5H-pyrimido[4′,5′:4,5]pyrrolo[2,3-d]pyrimidin-7-amine] | 7.82 |
| C[C@H]1CN(c2ccc(Nc3ncc4c5ccncc5n(C5CCCC5)c4n3)nc2)CCN1 [Example 62] | 8.70 |
| CC1CN(c2ccc(Nc3ncc4c5ccncc5n(C5CCCC5)c4n3)nc2)CC(C)N1 (stereo not shown) [Example 72] | 8.64 |
| C[C@@H]1CN(c2cnc(Nc3ncc4c5ccncc5n(C5CCCC5)c4n3)cn2)CCN1 [Example 80] | 8.46 |
| N[C@H]1CCN(c2cnc(Nc3ncc4c5ccncc5n(C5CCCC5)c4n3)cn2)C1 [Example 89] | 8.12 |
| N[C@@H]1CCN(c2cnc(Nc3ncc4c5ccncc5n(C5CCCC5)c4n3)cn2)C1 [Example 90] | 8.25 |
| c1cc2c3cnc(Nc4ccc(N[C@@H]5CCNC5)nn4)nc3n(C3CCCC3)c2cn1 [Example 91] | 8.21 |
| c1cc2c3cnc(Nc4ccc(NCC5CCCCN5)nn4)nc3n(C3CCCC3)c2cn1 (stereo not shown) [Example 99] | 8.31 |
| c1cc2c3cnc(Nc4ccc(NCC5COCCN5)nn4)nc3n(C3CCCC3)c2cn1 (stereo not shown) [Example 100] | 8.21 |
| COC1CCN(c2ccc(Nc3ncc4c5ccncc5n(C5CCCC5)c4n3)nn2)C1 (stereo not shown) [Example 110] | 8.47 |
| CN1CCN(c2ccc(Nc3ncc4c5ccncc5n(C5CCCC5)c4n3)nn2)CC1 [Example 112] | 8.23 |
| CC1CN(c2ccc(Nc3ncc4c5ccncc5n(C5CCCC5)c4n3)nn2)CC(C)N1 (stereo not shown) [Example 113] | 8.38 |
| NC1CCCN(c2ccc(Nc3ncc4c5ccncc5n(C5CCCC5)c4n3)nn2)C1 (stereo not shown) [Example 116] | 8.70 |
| N#CC1CCN(c2ccc(Nc3ncc4c5ccncc5n(C5CCCC5)c4n3)nn2)C1 (stereo not shown) [Example 118] | 8.38 |
| CC1CCN(c2ccc(Nc3ncc4c5ccncc5n(C5CCCC5)c4n3)nn2)C1 (stereo not shown) [Example 120] | 7.72 |
| CCC1CN(c2ccc(Nc3ncc4c5ccncc5n(C5CCCC5)c4n3)nn2)CCN1 (stereo not shown) [Example 121] | 8.37 |
| CN(C)C1CCN(c2ccc(Nc3ncc4c5cc[nH]c(=O)c5n(C5CCCC5)c4n3)nc2)CC1 [Example 123] | 7.32 |
| CC1CN(c2ccc(Nc3ncc4c5cc[nH]c(=O)c5n(C5CCCC5)c4n3)nc2)CC(C)N1 (stereo not shown) [Example 124] | 7.77 |
| CC1CN(c2ccc(Nc3ncc4c5cc[nH]c(=O)c5n(C5CCCC5)c4n3)nn2)CC(C)N1 (stereo not shown) [Example 125] | 7.92 |
| C[C@H]1CN(c2ccc(Nc3ncc4c5cc[nH]c(=O)c5n(C5CCCC5)c4n3)nn2)CCN1 [Example 129] | 7.80 |
| NC1CCN(c2nc(Nc3ncc4c5ccncc5n(C5CCCC5)c4n3)ns2)CC1 [Example 131, 4-Amino-1-(3-((9-cyclopentyl-9H-pyrido[4′,3′:4,5]pyrrolo[2,3-d]pyrimidin-2-yl)amino)-5-1,2,4-thiadiazolyl)-piperidine] | 6.76 |
| c1cc2c3cnc(Nc4nsc(NC5CCNC5)n4)nc3n(C3CCCC3)c2cn1 (stereo not shown) [Example 135] | 5.00 |
| CN(C)C1CCN(c2ccc(Nc3ncc4c5ccnc(Cl)c5n(C5CCCC5)c4n3)nn2)CC1 [Example 154, 8-Chloro-9-cyclopentyl-N-(6-(4-(dimethylamino)-1-piperidinyl)-3-pyridazinyl)-9H-pyrido[4′,3′:4,5]pyrrolo[2,3-d]pyrimidin-2-amine] | 7.70 |
| CC(C)n1c2cnccc2c2cnc(Nc3ccc(N4CCNCC4)cn3)nc21 [Example 159, 9-(1-methylethyl)-N-(5-(1-piperazinyl)-2-pyridinyl)-9H-pyrido[4′,3′:4,5]pyrrolo[2,3-d]pyrimidin-2-amine] | 8.52 |

Next, values leading:

| pIC50 | Compound |
| --- | --- |
| 8.66 | CC1(C)CN(c2ccc(Nc3ncc4c5ccncc5n(C5CCCC5)c4n3)nn2)CCN1 [Example 10] |
| 9.49 | c1ccc(-n2c3cnccc3c3cnc(Nc4ccc(N5CCNCC5)cc4)nc32)cc1 [Example 17, (9-Phenyl-9H-pyrido[4′,3′:4,5]pyrrolo[2,3-d]pyrimidin-2-yl)-(4-piperazin-1-yl-phenyl)amine] |
| 7.96 | c1cc2c3cnc(Nc4ccc(N5CCNCC5)cn4)nc3n(C3CCCCC3)c2cn1 [Example 23, (9-Cyclohexyl-9H-pyrido[4′,3′,4,5]pyrrolo[2,3-d]pyrimidin-2-yl)-(5-piperazin-1-yl-pyridin-2-yl)-amine] |
| 8.28 | Fc1cncc2c1c1cnc(Nc3ccc(N4CCNCC4)cn3)nc1n2C1CCCC1 [Example 58, 9-Cyclopentyl-5-fluoro-N-(5-(1-piperazinyl)-2-pyridinyl)-9H-pyrido[4′,3′:4,5]pyrrolo[2,3-d]pyrimidin-2-amine] |
| 8.40 | NCC1CCN(c2ccc(Nc3ncc4c5ccncc5n(C5CCCC5)c4n3)nc2)CC1 [Example 60, 4-Aminomethyl-1-(6-((9-cyclopentyl-9H-pyrido[4′,3′:4,5]pyrrolo[2,3-d]pyrimidin-2-yl)amino)-3-pyridinyl)-piperidine] |
| 8.77 | C[C@@H]1CN(c2ccc(Nc3ncc4c5ccncc5n(C5CCCC5)c4n3)nc2)CCN1 [Example 61] |
| 8.89 | NCC1CCCN(c2ccc(Nc3ncc4c5ccncc5n(C5CCCC5)c4n3)nc2)C1 (stereo not shown) [Example 67] |
| 8.44 | c1cc2c3cnc(Nc4ccc(NCC5CCNC5)cn4)nc3n(C3CCCC3)c2cn1 (stereo not shown) [Example 70] |
| 7.77 | COC1CCN(c2ccc(Nc3ncc4c5ccncc5n(C5CCCC5)c4n3)nc2)C1 (stereo not shown) [Example 73] |
| 7.25 | CC1CCN(c2ccc(Nc3ncc4c5ccncc5n(C5CCCC5)c4n3)nc2)C1 (stereo not shown) [Example 74] |
| 8.85 | CNC1CCN(c2ccc(Nc3ncc4c5ccncc5n(C5CCCC5)c4n3)nc2)CC1 [Example 75] |
| 8.23 | c1cc2c3cnc(Nc4ccc(N5CCC(N6CCCC6)CC5)cn4)nc3n(C3CCCC3)c2cn1 [Example 76] |
| 7.82 | CN1CCN(c2cnc(Nc3ncc4c5ccncc5n(C5CCCC5)c4n3)cn2)CC1 [Example 78] |
| 7.92 | CC1CN(c2cnc(Nc3ncc4c5ccncc5n(C5CCCC5)c4n3)cn2)CC(C)N1 (stereo not shown) [Example 79] |
| 8.04 | C[C@H]1CN(c2cnc(Nc3ncc4c5ccncc5n(C5CCCC5)c4n3)cn2)CCN1 [Example 81] |
| 8.59 | NC1CCN(c2cnc(Nc3ncc4c5ccncc5n(C5CCCC5)c4n3)cn2)CC1 [Example 82] |
| 7.92 | c1cc2c3cnc(Nc4cnc(NC5CCNCC5)cn4)nc3n(C3CCCC3)c2cn1 [Example 83] |
| 7.66 | c1cc2c3cnc(Nc4cnc(N5CCOCC5)cn4)nc3n(C3CCCC3)c2cn1 [Example 84] |

| pIC50 | Compound |
| --- | --- |
| 7.70 | CN(C)C1CCN(c2cnc(Nc3ncc4c5ccncc5n(C5CCCC5)c4n3)cn2)CC1 [Example 85] |
| 8.19 | c1cc2c3cnc(Nc4cnc(N5CCCNCC5)cn4)nc3n(C3CCCC3)c2cn1 [Example 86] |
| 7.37 | COC1CCN(c2cnc(Nc3ncc4c5ccncc5n(C5CCCC5)c4n3)cn2)C1 (stereo not shown) [Example 87] |
| 6.32 | CC1CCN(c2cnc(Nc3ncc4c5ccncc5n(C5CCCC5)c4n3)cn2)C1 (stereo not shown) [Example 88] |
| 8.06 | c1cc2c3cnc(Nc4ccc(N[C@H]5CCNC5)nn4)nc3n(C3CCCC3)c2cn1 [Example 92] |
| 8.36 | NCC1CCCN(c2ccc(Nc3ncc4c5ccncc5n(C5CCCC5)c4n3)nn2)C1 (stereo not shown) [Example 95] |
| 8.64 | O=C1CN(c2ccc(Nc3ncc4c5ccncc5n(C5CCCC5)c4n3)nn2)CCN1 [Example 115] |
| 8.06 | O=c1[nH]ccc2c3cnc(Nc4ccc(N5CCNCC5)nn4)nc3n(C3CCCC3)c12 [Example 122, 9-Cyclopentyl-2-((6-(1-piperazinyl)-3-pyridazinyl)amino)-7,9-dihydro-8H-pyrido[4′,3′:4,5]pyrrolo[2,3-d]pyrimidin-8-one] |
| 8.70 | NC1CCN(c2ccc(Nc3ncc4c5cc[nH]c(=O)c5n(C5CCCC5)c4n3)nn2)CC1 [Example 126] |
| 8.28 | CN(C)C1CCN(c2ccc(Nc3ncc4c5cc[nH]c(=O)c5n(C5CCCC5)c4n3)nn2)CC1 [Example 127] |
| 7.54 | CN1CCN(c2ccc(Nc3ncc4c5cc[nH]c(=O)c5n(C5CCCC5)c4n3)nn2)CC1 [Example 128] |
| 7.70 | CC1(C)CN(c2ccc(Nc3ncc4c5cc[nH]c(=O)c5n(C5CCCC5)c4n3)nn2)CCN1 [Example 130] |
| 6.52 | c1cc2c3cnc(Nc4nsc(N5CCNCC5)n4)nc3n(C3CCCC3)c2cn1 [Example 132] |
| 7.00 | CN1CCN(c2nc(Nc3ncc4c5ccncc5n(C5CCCC5)c4n3)ns2)CC1 [Example 133] |
| 6.72 | CN(C)C1CCN(c2nc(Nc3ncc4c5ccncc5n(C5CCCC5)c4n3)ns2)CC1 [Example 134] |
| 8.52 | O=C(CO)N1CCN(c2ccc(Nc3ncc4c5ccncc5n(C5CCCC5)c4n3)nc2)CC1 [Example 151, 2-(4-(6-((9-Cyclopentyl-9H-pyrido[4′,3′:4,5]pyrrolo[2,3-d]pyrimidin-2-yl)amino)-3-pyridinyl)-1-piperazinyl)-2-oxoethanol] |
| 8.39 | Cc1nc(Nc2ncc3c4ccnc(Cl)c4n(C4CCCC4)c3n2)ccc1N1CCNCC1 [Example 155, 8-Chloro-9-cyclopentyl-N-(6-methyl-5-(1-piperazinyl)-2-pyridinyl)-9H-pyrido[4′,3′:4,5]pyrrolo[2,3-d]pyrimidin-2-amine] |
| 8.26 | OCCN1CCN(c2ccc(Nc3ncc4c5ccnc(Cl)c5n(C5CCCC5)c4n3)nc2)CC1 [Example 166, 2-(4-(6-((8-Chloro-9-cyclopentyl-9H-pyrido[4′,3′:4,5]pyrrolo[2,3-d]pyrimidin-2-yl)amino)-3-pyridinyl)-1-piperazinyl)ethanol] |
